Laboratory results published in PubChem BioAssay AID330 (DTP/NCI, 2004).
Values joined by “and” are separate entries in the source; they are usually repeats but may differ in a detail not shown here. Identical values can stand only once. Inconclusive results and toxic doses are left out. The calls were made as follows: active = survival T/C of 150% or more; inactive = T/C below 125% in these data. Peptide text beside a SMILES is read from it.

System: P388 leukemia ip, CD2F1 mice, survival T/C
Experiment: NCI In Vivo Anticancer Drug Screen. Data for tumor model P388 Leukemia (intraperitoneal) in CD2F1 (CDF1) mice
Settings: endpoint: median survival time, higher = longer survival
Procedure, shortened: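 Mice carrying the transplanted tumor received test compound or vehicle. Survival was recorded in each group, and the value is the treated-group measurement divided by that of the vehicle-treated control group.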

[1] = dose: 60.0 mg/kg/injection, schedule: Q01DX005 (ip), vehicle: saline with Tween-80
[2] = dose: 120.0 mg/kg/injection, schedule: Q01DX005 (ip), vehicle: saline with Tween-80
[3] = dose: 240.0 mg/kg/injection, schedule: Q01DX005 (ip), vehicle: saline with Tween-80
[4] = dose: 12.5 mg/kg/injection, schedule: Q01DX005 (ip), vehicle: saline with Tween-80
[5] = dose: 25.0 mg/kg/injection, schedule: Q01DX005 (ip), vehicle: saline with Tween-80
[6] = dose: 50.0 mg/kg/injection, schedule: Q01DX005 (ip), vehicle: saline with Tween-80
[7] = dose: 25.0 mg/kg/injection, schedule: Q01DX009 (ip), vehicle: saline with Tween-80
[8] = dose: 50.0 mg/kg/injection, schedule: Q01DX009 (ip), vehicle: saline with Tween-80
[9] = dose: 100.0 mg/kg/injection, schedule: Q01DX009 (ip), vehicle: saline with Tween-80
[10] = dose: 200.0 mg/kg/injection, schedule: Q01DX009 (ip), vehicle: saline with Tween-80
[11] = dose: 50.0 mg/kg/injection, schedule: Q01DX009 (ip), vehicle: Klucel (hydroxypropylcellulose) (HPC)
[12] = dose: 100.0 mg/kg/injection, schedule: Q01DX009 (ip), vehicle: Klucel (hydroxypropylcellulose) (HPC)
[13] = dose: 200.0 mg/kg/injection, schedule: Q01DX009 (ip), vehicle: Klucel (hydroxypropylcellulose) (HPC)
[14] = dose: 50.0 mg/kg/injection, schedule: Q01DX005 (ip), vehicle: saline
[15] = dose: 100.0 mg/kg/injection, schedule: Q01DX005 (ip), vehicle: saline
[16] = dose: 200.0 mg/kg/injection, schedule: Q01DX005 (ip), vehicle: saline

Measured: T/C

C1CC2CCC1CNC2
inactive: dose: 25.0 mg/kg/injection, schedule: Q04DX003 (ip), vehicle: saline 104 % of control | dose: 50.0 mg/kg/injection, schedule: Q04DX003 (ip), vehicle: saline 104 % of control | dose: 100.0 mg/kg/injection, schedule: Q04DX003 (ip), vehicle: saline 95 % of control

CSc1nc(N)n2nc(C)cc2n1
inactive: [1] 100 % of control | [2] 100 % of control | [3] 95 % of control

CCOc1cc2c(cc1C(C)c1ccc(OCc3ccccc3)c(OC)c1)OCO2 (stereo not drawn)
inactive: dose: 50.0 mg/kg/injection, schedule: Q01DX005 (ip), vehicle: Klucel (hydroxypropylcellulose) (HPC) 97 % of control | dose: 100.0 mg/kg/injection, schedule: Q01DX005 (ip), vehicle: Klucel (hydroxypropylcellulose) (HPC) 97 % of control | dose: 200.0 mg/kg/injection, schedule: Q01DX005 (ip), vehicle: Klucel (hydroxypropylcellulose) (HPC) 92 % of control

COC1=C(C)C(=O)c2c(c(COC(N)=O)c3n2CC2C3N2C)C1=O (stereo not drawn)
inactive: dose: 6.25 mg/kg/injection, schedule: Q04DX003 (ip), vehicle: saline with Tween-80 100 % of control | dose: 12.5 mg/kg/injection, schedule: Q04DX003 (ip), vehicle: saline with Tween-80 90 % of control

Cc1c2oc(=O)cc(-c3ccccc3)c2cc2c(=O)ccoc12
inactive: [4] 97 % of control | [5] 92 % of control | [6] 97 % of control | dose: 100.0 mg/kg/injection, schedule: Q01DX005 (ip), vehicle: saline with Tween-80 86 % of control | dose: 200.0 mg/kg/injection, schedule: Q01DX005 (ip), vehicle: saline with Tween-80 86 % of control

CC1(C)Nc2cccc3c(N=Nc4ccc(N=Nc5ccccc5)c5ccccc45)ccc(c23)N1
inactive: [7] 120 % of control and 95 % of control and 97 % of control | [8] 101 % of control and 103 % of control and 112 % of control | [9] 104 % of control and 123 % of control and 91 % of control | [10] 94 % of control and 95 % of control

CN(C)CC(O)c1ccc2cc(Br)c3ccccc3c2c1 (stereo not drawn)
inactive: [4] 97 % of control | [5] 106 % of control | [6] 100 % of control and 97 % of control

Cc1ncc([N+](=O)[O-])n1Cc1nnc(N)s1
inactive: [11] 107 % of control | [12] 107 % of control | [13] 108 % of control

CC(CCl)OC(=O)Nc1cccc(C(F)(F)F)c1 (stereo not drawn)
inactive: [1] 106 % of control | [2] 102 % of control | [3] 107 % of control

ClC(Cl)c1nc2ccccc2[nH]1
inactive: dose: 6.25 mg/kg/injection, schedule: Q01DX009 (ip), vehicle: saline 108 % of control | dose: 12.5 mg/kg/injection, schedule: Q01DX009 (ip), vehicle: saline 100 % of control | dose: 25.0 mg/kg/injection, schedule: Q01DX009 (ip), vehicle: saline 108 % of control | dose: 50.0 mg/kg/injection, schedule: Q01DX009 (ip), vehicle: saline 101 % of control

CSCCOCc1cc(C)no1
inactive: [1] 100 % of control | [2] 100 % of control | [3] 100 % of control

Cc1csc(Nc2c3ccccc3nc3ccccc23)n1
inactive: dose: 12.5 mg/kg/injection, schedule: Q04DX002 (ip), vehicle: distilled water + Tween-80 99 % of control | dose: 25.0 mg/kg/injection, schedule: Q04DX002 (ip), vehicle: distilled water + Tween-80 98 % of control | dose: 50.0 mg/kg/injection, schedule: Q04DX002 (ip), vehicle: distilled water + Tween-80 91 % of control | dose: 100.0 mg/kg/injection, schedule: Q04DX002 (ip), vehicle: distilled water + Tween-80 91 % of control | dose: 200.0 mg/kg/injection, schedule: Q04DX002 (ip), vehicle: distilled water + Tween-80 87 % of control | dose: 400.0 mg/kg/injection, schedule: Q04DX002 (ip), vehicle: distilled water + Tween-80 100 % of control

[B-][N+]12CC[N+]([B-])(CC1)CC2
inactive: dose: 0.06 mg/kg/injection, schedule: Q04DX003 (ip), vehicle: other 100 % of control | dose: 0.13 mg/kg/injection, schedule: Q04DX003 (ip), vehicle: other 100 % of control | dose: 0.25 mg/kg/injection, schedule: Q04DX003 (ip), vehicle: other 100 % of control | dose: 15.6 micrograms/kg/injection, schedule: Q01DX009 (ip), vehicle: other 100 % of control | dose: 31.3 micrograms/kg/injection, schedule: Q01DX009 (ip), vehicle: other 100 % of control | dose: 62.5 micrograms/kg/injection, schedule: Q01DX009 (ip), vehicle: other 100 % of control | dose: 62.5 micrograms/kg/injection, schedule: Q01DX009 (ip), vehicle: saline 87 % of control | dose: 125.0 micrograms/kg/injection, schedule: Q01DX009 (ip), vehicle: saline 104 % of control

O=c1c2ccccc2nc2sc3nc4ccccc4c(=O)n3n12
inactive: dose: 15.0 mg/kg/injection, schedule: Q01DX005 (ip), vehicle: Klucel (hydroxypropylcellulose) (HPC) 94 % of control | dose: 30.0 mg/kg/injection, schedule: Q01DX005 (ip), vehicle: Klucel (hydroxypropylcellulose) (HPC) 91 % of control | dose: 60.0 mg/kg/injection, schedule: Q01DX005 (ip), vehicle: Klucel (hydroxypropylcellulose) (HPC) 88 % of control and 92 % of control | dose: 120.0 mg/kg/injection, schedule: Q01DX005 (ip), vehicle: Klucel (hydroxypropylcellulose) (HPC) 89 % of control | dose: 240.0 mg/kg/injection, schedule: Q01DX005 (ip), vehicle: Klucel (hydroxypropylcellulose) (HPC) 96 % of control

CN1c2ccccc2C(=O)N2C(=O)CCC21C (stereo not drawn)
inactive: [1] 102 % of control | [2] 88 % of control

Brc1ccc(C2=NOP(c3ccccc3)(c3ccccc3)(c3ccccc3)C2)cc1
inactive: [11] 99 % of control | [12] 96 % of control

CCOC(CCC(CO)CO)OCC
inactive: dose: 50.0 mg/kg/injection, schedule: Q01DX009 (ip), vehicle: suspension in saline 108 % of control | dose: 100.0 mg/kg/injection, schedule: Q01DX009 (ip), vehicle: suspension in saline 112 % of control | dose: 200.0 mg/kg/injection, schedule: Q01DX009 (ip), vehicle: suspension in saline 96 % of control

Cc1ccc(S(=O)(=O)N(CCCc2c(-c3ccccc3)nc(N)[nH]c2=O)c2ccccc2)cc1
inactive: dose: 3.75 mg/kg/injection, schedule: Q01DX005 (ip), vehicle: saline with Tween-80 102 % of control | dose: 7.5 mg/kg/injection, schedule: Q01DX005 (ip), vehicle: saline with Tween-80 94 % of control | dose: 15.0 mg/kg/injection, schedule: Q01DX005 (ip), vehicle: saline with Tween-80 107 % of control and 87 % of control | [1] 98 % of control and 90 % of control

CC(C)CC(NC(=O)CCl)C(=O)O (stereo not drawn)
inactive: [7] 108 % of control | [8] 108 % of control and 110 % of control | [9] 106 % of control and 113 % of control | [10] 96 % of control | dose: 400.0 mg/kg/injection, schedule: Q01DX009 (ip), vehicle: saline with Tween-80 108 % of control

c1ccc2c3c([nH]c2c1)CCCC3
inactive: [11] 102 % of control | [12] 103 % of control | [13] 111 % of control

Nc1nnc2nc(C(C(=O)c3ccccc3)c3nc4nnc(N)n4[nH]c3=O)c(=O)[nH]n12
inactive: [14] 102 % of control | [15] 96 % of control | [16] 97 % of control

CCN(CC)CCCC(C)NS(=O)(=O)c1cccc2c(N(C)C)cccc12 (stereo not drawn)
inactive: dose: 6.25 mg/kg/injection, schedule: Q01DX009 (ip), vehicle: water 96 % of control | dose: 12.5 mg/kg/injection, schedule: Q01DX009 (ip), vehicle: water 97 % of control | dose: 25.0 mg/kg/injection, schedule: Q01DX009 (ip), vehicle: water 93 % of control | dose: 50.0 mg/kg/injection, schedule: Q01DX009 (ip), vehicle: water 96 % of control | dose: 100.0 mg/kg/injection, schedule: Q01DX009 (ip), vehicle: water 99 % of control

NC(CCC(=O)O)C(=O)NC(CCC(=O)O)C(=O)O (stereo not drawn) (H-Glu-Glu-OH; configuration not given here)
inactive: [14] 97 % of control | [15] 103 % of control | [16] 104 % of control

C=C(C)C1NC(=O)C(C(O)c2cc(O)c(O)c(Cl)c2)N(C)C(=O)/C(=C/C(=O)O)NC(=O)/C(=C(\C)CC)NC(=O)C2C=CCN2C(=O)C(C(C)(O)CC)NC1=O (stereo not drawn)
inactive: dose: 0.65 mg/kg/injection, schedule: Q01DX005 (ip), vehicle: Klucel (hydroxypropylcellulose) (HPC) 88 % of control | dose: 1.25 mg/kg/injection, schedule: Q01DX005 (ip), vehicle: Klucel (hydroxypropylcellulose) (HPC) 95 % of control | dose: 2.5 mg/kg/injection, schedule: Q01DX005 (ip), vehicle: Klucel (hydroxypropylcellulose) (HPC) 91 % of control
